This passage reports EC50 results from patent EP4617278A1, “NUCLEOTIDE ANALOG, AND COMPOSITION AND USE THEREOF” (priority 2022, dated 2024).

Some results are limits rather than exact numbers.

In this experiment the test system is SARS-CoV-2 replicon. The experiment is classed as cell-based. To be noted: read-out: SARS-CoV-2 Replicon (Huh-7cell) EC50.
Regarding `CC(C)C(=O)O[C@H]1[C@@H](OC(=O)C(C)C)[C@](C#N)(c2ccc3c(N)ncnn23)O[C@@H]1COP(=O)(OCOC(=O)C(C)(C)C)OCOC(=O)C(C)(C)C` [Compound 29, (2R,3R,4R,5R)-2-(4-aminopyrrolo[2,1-f][1,2,4]triazin-7-yl)-5-((((bis(((tert-butylcarbonyl)oxy)methoxy))phosphoryl)oxy)methyl)-2-cyanotetrahydrofuran-3,4-diyl bis(2-methylpropionate)], the 50% effective concentration (EC50) lay in the range of 10 to 50 nM.

As to `CCC(CC)COC(=O)[C@H](C)N[P@@](=O)(OCOC(=O)C(C)(C)C)OC[C@H]1O[C@@](C#N)(c2ccc3c(N)ncnn23)[C@H](OC(=O)C(C)C)[C@@H]1OC(=O)C(C)C` [Compound 11b, (2R,3R,4R,5R)-2-(4-aminopyrrolo[2,1-f][1,2,4]triazin-7-yl)-2-cyano-5-((((S)-(((S)-1-(2-ethylbutoxy)-1-oxopropan-2-yl)amino)((pivaloyloxy)methoxy)phosphoryl)oxy)methyl)tetrahydrofuran-3,4-diyl bis(2-methylpropionate)], the EC50 is less than 5 nM. Take `CCC(CC)COC(=O)[C@H](Cc1ccccc1)N[P@@](=O)(OC[C@H]1O[C@@](C#N)(c2ccc3c(N)ncnn23)[C@H](OC(=O)C(C)C)[C@@H]1OC(=O)C(C)C)Oc1ccccc1` [Compound 41a, (2R,3R,4R,5R)-2-(4-aminopyrrolo[2,1-f][1,2,4]triazin-7-yl)-2-cyano-5-((((R)-(((S)-1-(2-ethylbutoxy)-1-oxo-3-phenylpropan-2-yl)amino)(phenoxy)phosphoryl)oxy)methyl)tetrahydrofuran-3,4-diyl bis(2-methylpropionate)]: the EC50 fell in the range of 50 to 500 nM. To `CCC(=O)O[C@H]1[C@@H](OC(=O)CC)[C@](C#N)(c2ccc3c(N)ncnn23)O[C@@H]1CO[P@@](=O)(OCOC(=O)OC(C)C)Oc1ccc(C(C)(C)C)cc1` [Compound 23b, ((2R,3R,4R,5R)-2-(4-aminopyrrolo[2,1-f][1,2,4]triazin-7-yl)-5-((((R)-(4-tert-butylphenoxy)(((isopropoxycarbonyl)oxy)methoxy)phosphoryl)oxy)methyl)-2-cyanotetrahydrofuran-3,4-diyl dipropionate] belongs 5 to 10 nM; to `CC(C)OC(=O)OCO[P@](=O)(N[C@@H](C)C(=O)OC(C)C)OC[C@H]1O[C@@](C#N)(c2ccc3c(N)ncnn23)[C@H](OC(=O)C(C)(C)C)[C@@H]1OC(=O)C(C)(C)C` [Compound 4b, (2R,3R,4R,5R)-2-(4-aminopyrrolo[2,1-f][1,2,4]triazin-7-yl)-2-cyano-5-((((S)-(((S)-1-isopropoxy-1-oxopropan-2-yl)amino)(((isopropoxycarbonyl)oxy)methoxy)phosphoryl)oxy)methyl)tetrahydrofuran-3,4-diyl bis(2,2-dimethylpropionate)], 50 to 500 nM. To `CCCCCOC(=O)C[C@H](N[P@](=O)(OC[C@H]1O[C@@](C#N)(c2ccc3c(N)ncnn23)[C@H](OC(=O)C(C)C)[C@@H]1OC(=O)C(C)C)Oc1ccc(C(C)(C)C)cc1)C(=O)OCCCCC` [Compound 39b, (2R,3R,4R,5R)-2-(4-aminopyrrolo[2,1-f][1,2,4]triazin-7-yl)-2-cyano-5-((((S)-(((S)-1,4-dipentyloxy-1,4-dioxobutan-2-yl)amino)(4-tert-butylphenoxy)phosphoryl)oxy)methyl)tetrahydrofuran-3,4-diyl bis(2-methylpropionate)] belongs 10 to 50 nM; to `CCC(CC)COC(=O)[C@H](C)N[P@@](=O)(OCOC(=O)C(C)(C)C)OC[C@H]1O[C@@](C#N)(c2ccc3c(N)ncnn23)[C@H](OC(C)=O)[C@@H]1OC(C)=O` [Compound 9b, (2R,3R,4R,5R)-2-(4-aminopyrrolo[2,1-f][1,2,4]triazin-7-yl)-2-cyano-5-((((S)-(((S)-1-(2-ethylbutoxy)-1-oxopropan-2-yl)amino)((pivaloyloxy)methoxy)phosphoryl)oxy)methyl)tetrahydrofuran-3,4-diyl diacetate], no more than 5 nM.
